Data reported in patent publication US20250381220A1, “MAGNESIUM-L-THREONATE AND NEUROTRANSMITTER COMPOSITIONS AND RELATED METHODS” (Neuro Supplements, LLC, priority 2020, published 2025).

System: Male Wistar Rats
Assay: Morris Water Maze (MWM) probe test
Format: in vivo, rat
Settings: 21 days through drinking water, probe test day 21, FIG. 4, MgT 435, PS 60 mg/kg bw/day

phosphatidylserine [PS] was tested, and the “time spent in target quadrant” value was “significant increase”.
